Consider seven compounds from ChEMBL document CHEMBL5214887, “Dispirotripiperazine-core compounds, their biological activity with a focus on broad antiviral property, and perspectives in drug design (mini-review)” (Eur J Med Chem, 2021).

Each structure is given as a SMILES string.

In series [1] the test system is Human immunodeficiency virus 1. Nature of the series: Antiviral activity against HIV-1 assessed as viral growth inhibition. It is filed as functional, organism-based.
A short description of series [2]: Antiviral activity against HPV18 infected in human HEK293T cells assessed as viral growth inhibition incubated for 72 hrs by green fluorescent protein based method. Type of series: functional, cell-based. As to conditions: human papillomavirus 18, HEK-293T.
The test system of a further series is Deltapapillomavirus 4. Nature of the series: Antiviral activity against BPV1 infected in human HEK293T cells assessed as viral growth inhibition incubated for 72 hrs by green fluorescent protein based method. Type of series: functional, organism-based. The settings on record: Deltapapillomavirus 4, HEK-293T.
Series [3] concerns Human betaherpesvirus 5. The series is described as follows: Antiviral activity against ganciclovir resistant HCMV infected in human HELF cells assessed as viral growth inhibition incubated for 8 days. Type of series: functional, organism-based. The settings on record: Human betaherpesvirus 5, HELF, 192 h.
A further series concerns Lyssavirus rabies. The series is described as follows: Antiviral activity against radiolabeled Rabies virus infected in bovine MDBK cell at 80 ug/ml incubated for 4 hrs by attachment assay based liquid scintillation counting analysis. As to conditions: dose 80 µg/ml. Type of series: functional.
Series [4] relates to Human betaherpesvirus 5. The series is described as follows: Antiviral activity against ganciclovir sensitive HCMV infected in human HELF cells assessed as viral growth inhibition incubated for 8 days. The settings on record: Human betaherpesvirus 5, HELF, 192 h. It is filed as functional, organism-based.
A further series relates to Human alphaherpesvirus 2. Nature of the series: Antiviral activity against HSV-2 infected in African green monkey GMK-AH-1 cells assessed as viral growth inhibition incubated for 73 hrs. It is filed as functional, organism-based. The settings on record: Human alphaherpesvirus 2, 73 h.
Series [5] deals with Human immunodeficiency virus. Nature of the series: Antiviral activity against HIV assessed as viral growth inhibition. Type of series: functional, organism-based. The settings on record: Human immunodeficiency virus 1.
The test system of series [6] is Human alphaherpesvirus 1. Nature of the series: Antiviral activity against acyclovir resistant HSV-1 infected in African green monkey GMK-AH-1 cells assessed as viral growth inhibition incubated for 73 hrs. Type of series: functional, organism-based. The settings on record: Human alphaherpesvirus 1, 73 h.
Series [7] has as its system Respiratory syncytial virus. Nature of the series: Antiviral activity against RSV assessed as viral growth inhibition. As to conditions: human respiratory syncytial virus. Type of series: functional, organism-based.
The subject of series [8] is Human papillomavirus type 16. The series is described as follows: Antiviral activity against HPV16 infected in human HEK293T cells assessed as viral growth inhibition incubated for 72 hrs by green fluorescent protein based method. It is filed as functional, organism-based. The settings on record: Human papillomavirus 16, HEK-293T.
Series [9] concerns Human alphaherpesvirus 1. The series is described as follows: Antiviral activity against HSV-1 infected in African green monkey GMK-AH-1 cells assessed as viral growth inhibition incubated for 73 hrs by crystal violet staining assay. The settings on record: Human alphaherpesvirus 1, 73 h. It is filed as functional, organism-based.
Series [10] is described as follows: […] in herpetic encephalitis mouse model assessed as reduction in mortality at 250 mg/kg,po bid for 5 days. It is filed as organism-based. Further details: scale not given: the % may be the effect or the level left. As to conditions: in vivo, 120 h, time 5 day.
Series [11] relates to Human alphaherpesvirus 1. The series is described as follows: Antiviral activity against HSV-1 assessed as viral growth inhibition. Type of series: functional, organism-based.
Series [12] is described as follows: Toxicity in mouse assessed as lethal dose at ip as single dose. The settings on record: in vivo. It is filed as organism-based.

What is called IC50 is the midpoint of a concentration-inhibition curve. For the compound `Cl.Cl.[O-][n+]1onc2ncnc(N3CC[N+]4(CC3)CC[N+]3(CCN(c5ncnc6no[n+]([O-])c56)CC3)CC4)c21`, the IC50 came to 150000 nM in [1]; 700 nM in [2]; 2600 nM in the series with Deltapapillomavirus 4; 150 nM in the series on Human betaherpesvirus 5 [3]; 150 nM in the series on Human betaherpesvirus 5 [4]; 10200 nM in the series on Human alphaherpesvirus 2. Besides, the IC50 in series [5] amounted to 1400 nM; in the series with Human alphaherpesvirus 1 [6], 8100 nM; in series [7], 7500 nM; in series [8] it was 1400 nM. In the series with Lyssavirus rabies, this compound registered an Activity of 95%.

As for `Cc1nc(N2CC[N+]3(CC2)CC[N+]2(CCNCC2)CC3)c([N+](=O)[O-])c(N2CC[N+]3(CC2)CC[N+]2(CCNCC2)CC3)n1`, the IC50 in the series with Human alphaherpesvirus 1 [9] is 1480 nM.

Consider `O=C(CCCl)N1CC[N+]2(CC1)CC[N+]1(CCN(C(=O)CCCl)CC1)CC2.[Cl-].[Cl-]`, for which, in series [10], the Activity is 35%.

With `Cc1nc(N2CCC[N+]3(CC2)CC[N+]2(CCCNCC2)CC3)c([N+](=O)[O-])c(N2CCC[N+]3(CC2)CC[N+]2(CCCNCC2)CC3)n1` (configuration not stated), the IC50 in series [5] was 4000 nM; in the series with Human alphaherpesvirus 1 [11] it was 1970 nM; in series [7] it was over 100000 nM.

In the case of `Cc1nc(N2CC[N+]3(CCC[N+]4(CCNCC4)CC3)CC2)c([N+](=O)[O-])c(N2CC[N+]3(CCC[N+]4(CCNCC4)CC3)CC2)n1`, the IC50 in the series on Human alphaherpesvirus 1 [11] turned out to be 1120 nM.

In general, LD50 refers to the dose at which mortality reaches 50%. Consider `O=C(CCBr)N1CC[N+]2(CC1)CC[N+]1(CCN(C(=O)CCBr)CC1)CC2.[Cl-].[Cl-]` [DIBROSPIDIUM CHLORIDE], for which the LD50 in [12] was 1920 mg/kg. Also, in series [10], the Activity was determined as 35%. The IC50 with Human alphaherpesvirus 1 [11] worked out at 66100 nM.

As for `OC(CCl)CN1CC[N+]2(CC1)CC[N+]1(CCN(CC(O)CCl)CC1)CC2.[Cl-].[Cl-]` (configuration not stated) [PROSPIDIUM CHLORIDE], the LD50 in series [12] is 100 mg/kg. Moreover, the IC50 in the series on Human alphaherpesvirus 1 [11] stood at 62500 nM.
